How the values were obtained:
butyrylcholinesterase = target: T1, butyrylcholinesterase (Rattus norvegicus, UniProt Q9JKC1); experiment: inhibition of butyrylcholinesterase (rat serum); type: biochemical; settings: rat serum enzyme; final concentration 4×10−5 mol/L
T1 construct: Butyrylcholinesterase: rat serum; from tissue; host or cells: rat serum
Method: (§1) Sample processing: All samples were formulated as 10-2 mol/L solution by using 100% DMSO. 10-2 mol/L solution was used in microdetermination. 1 μL was taken to use in single tube experiment.
(§2) Solvent control: 0.4% DMSO was used in microdetermination. The inhibition ratio of the sample was obtained wherein the effect of solvent was deducted.
Butyrylcholinesterase: rat serum

acetylcholinesterase = target: T2, acetylcholinesterase (Rattus norvegicus, UniProt P37136); experiment: biochemical; type: biochemical; settings: rat cortex enzyme; final concentration 4×10−5 mol/L
T2 construct: Acetylcholinesterase: rat cortex; from tissue; host or cells: rat cortex
T2 sequence (P37136 32-614): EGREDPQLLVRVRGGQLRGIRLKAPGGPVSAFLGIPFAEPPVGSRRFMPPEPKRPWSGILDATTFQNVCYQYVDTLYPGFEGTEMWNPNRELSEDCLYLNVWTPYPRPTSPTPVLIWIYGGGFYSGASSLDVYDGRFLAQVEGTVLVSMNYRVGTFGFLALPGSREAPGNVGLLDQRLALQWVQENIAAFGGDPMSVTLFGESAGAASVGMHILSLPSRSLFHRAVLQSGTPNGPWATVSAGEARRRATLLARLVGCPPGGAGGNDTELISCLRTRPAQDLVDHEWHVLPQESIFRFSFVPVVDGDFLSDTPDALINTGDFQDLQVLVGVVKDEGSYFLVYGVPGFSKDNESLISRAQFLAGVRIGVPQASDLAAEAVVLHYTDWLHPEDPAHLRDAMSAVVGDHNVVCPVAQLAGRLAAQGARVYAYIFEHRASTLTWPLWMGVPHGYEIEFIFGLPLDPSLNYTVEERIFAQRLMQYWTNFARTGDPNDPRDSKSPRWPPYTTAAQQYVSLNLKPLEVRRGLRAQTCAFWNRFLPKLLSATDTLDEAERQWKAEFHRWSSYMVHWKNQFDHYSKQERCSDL
Method: as §1, §2
Acetylcholinesterase: rat cortex

T1 sequence (Q9JKC1 24-597): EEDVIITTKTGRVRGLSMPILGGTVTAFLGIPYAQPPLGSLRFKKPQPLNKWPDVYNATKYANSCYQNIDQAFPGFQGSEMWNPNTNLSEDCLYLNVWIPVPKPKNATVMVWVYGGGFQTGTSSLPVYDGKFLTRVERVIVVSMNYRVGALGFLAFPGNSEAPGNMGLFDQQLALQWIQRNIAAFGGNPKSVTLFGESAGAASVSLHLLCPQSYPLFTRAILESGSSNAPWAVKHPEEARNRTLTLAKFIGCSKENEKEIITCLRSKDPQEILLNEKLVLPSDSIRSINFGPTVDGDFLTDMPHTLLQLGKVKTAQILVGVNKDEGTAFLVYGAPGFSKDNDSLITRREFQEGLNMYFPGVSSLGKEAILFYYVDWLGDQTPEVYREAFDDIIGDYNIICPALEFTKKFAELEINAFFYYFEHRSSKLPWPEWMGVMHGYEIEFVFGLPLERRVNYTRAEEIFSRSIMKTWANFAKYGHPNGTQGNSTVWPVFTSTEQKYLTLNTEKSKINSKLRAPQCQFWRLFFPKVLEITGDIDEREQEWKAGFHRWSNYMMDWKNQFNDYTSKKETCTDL

Structure (SMILES)	butyrylcholinesterase inhibitory activity inhibition ratio (%) (butyrylcholinesterase)	acetylcholinesterase inhibitory activity inhibition ratio (%) (acetylcholinesterase)
COc1cc2c(cc1OC)C(=O)C(CC1(F)CCN(C(=O)c3ccccc3)CC1)C2 (stereo not drawn) [DC23, 2-((1-benzoyl-4-fluoropiperidin-4-yl)methyl)-5,6-dimethoxy-2,3-dihydro-1H-inden-1-one]	0.00	57.09
COc1cc2c(cc1OC)C(=O)C(CC1(F)CCN(Cc3cc(F)cc(F)c3)CC1)C2 (stereo not drawn) [DC27, 2-((1-(3,5-difluorobenzyl)-4-fluoropiperidin-4-yl)methyl)-5,6-dimethoxy-2,3-dihydro-1H-inden-1-one]	18.07	97.34
COc1cc2c(cc1OC)C(=O)C(CC1(F)CCN(Cc3cccc(C)c3)CC1)C2 (stereo not drawn) [DC29, 2-((4-fluoro-1-(3-methylbenzyl)piperidin-4-yl)methyl)-5,6-dimethoxy-2,3-dihydro-1H-inden-1-one]	64.92	97.78
COc1cc2c(cc1OC)C(=O)C(CC1(F)CCN(Cc3cccc(C(F)(F)F)c3)CC1)C2 (stereo not drawn) [DC30, 2-((4-fluoro-1-(3-(trifluoromethyl)benzyl)piperidin-4-yl)methyl)-5,6-dimethoxy-2,3-dihydro-1H-inden-1-one]	5.18	97.49
COc1cc2c(cc1OC)C(=O)C(CC1(F)CCN(CC3CCC3)CC1)C2 (stereo not drawn) [DC31, 2-((1-(cyclobutylmethyl)-4-fluoropiperidin-4-yl)methyl)-5,6-dimethoxy-2,3-dihydro-1H-inden-1-one]	35.06	85.82
COc1cc2c(cc1OC)C(=O)C(CC1(F)CCN(CC3CCCC3)CC1)C2 (stereo not drawn) [DC32, 2-((1-(cyclopentylmethyl)-4-fluoropiperidin-4-yl)methyl)-5,6-dimethoxy-2,3-dihydro-1H-inden-1-one]	46.68	90.10
COc1cc2c(cc1OC)C(=O)C(CC1(F)CCN(CC3CCCCC3)CC1)C2 (stereo not drawn) [DC33, 2-((1-(cyclohexylmethyl)-4-fluoropiperidin-4-yl)methyl)-5,6-dimethoxy-2,3-dihydro-1H-inden-1-one]	0.36	90.10
COc1cc2c(cc1OC)C(=O)C(CC1(F)CCN(CC3CCCCCC3)CC1)C2 (stereo not drawn) [DC34, 2-((1-(cycloheptylmethyl)-4-fluoropiperidin-4-yl)methyl)-5,6-dimethoxy-2,3-dihydro-1H-inden-1-one]	68.48	95.57
COc1cc2c(cc1OC)C(=O)C(CC1(F)CCN(Cc3cc(F)cc(F)c3F)CC1)C2 (stereo not drawn) [DC35, 2-((4-fluoro-1-(2,3,5-trifluorobenzyl)piperidin-4-yl)methyl)-5,6-dimethoxy-2,3-dihydro-1H-inden-1-one]	10.08	94.39
COc1cc2c(cc1OC)C(=O)C(CC1(F)CCN(Cc3ccc(-c4ccccc4)cc3)CC1)C2 (stereo not drawn) [DC36, 2-((1-([1,1′-biphenyl]-4-ylmethyl)-4-fluoropiperidin-4-yl)methyl)-5,6-dimethoxy-2,3-dihydro-1H-inden-1-one]	5.18	90.25
COc1cc2c(cc1OC)C(=O)C(CC1(F)CCN(Cc3ccccc3C#N)CC1)C2.Cl (stereo not drawn) [DC37, 2-((4-((5,6-dimethoxy-1-oxo-2,3-dihydro-1H-inden-2-yl)methyl)-4-fluoropiperidin-1-yl)methyl)benzonitrile hydrochloride]	20.80	81.98
COc1cc2c(cc1OC)C(=O)C(CC1(F)CCN(Cc3cccc(F)c3)CC1)C2.Cl (stereo not drawn) [DC38, 2-((4-fluoro-1-(3-fluorobenzyl)piperidin-4-yl)methyl)-5,6-dimethoxy-2,3-dihydro-1H-inden-1-one hydrochloride]	72.57	96.90
COc1cc2c(cc1OC)C(=O)C(CC1(F)CC3CCC(C1)N3Cc1cc(C)cc(C)c1)C2 (stereo not drawn) [DC44, 2-((8-(3,5-dimethylbenzyl)-3-fluoro-8-azabicyclo[3.2.1]octan-3-yl)methyl)-5,6-dimethoxy-2,3-dihydro-1H-inden-1-one]	34.15	95.27
COc1cc2c(cc1OC)C(=O)C(CC1(F)CC3CCC(C1)N3Cc1ccc(F)cc1)C2 (stereo not drawn) [DC45, 2-((3-fluoro-8-(4-fluorobenzyl)-8-azabicyclo[3.2.1]octan-3-yl)methyl)-5,6-dimethoxy-2,3-dihydro-1H-inden-1-one]	82.56	97.19
COc1cc2c(cc1OC)C(=O)C(CC1(F)CC3CCC(C1)N3Cc1ccc(C(C)(C)C)cc1)C2 (stereo not drawn) [DC47, 2-((8-(4-(tert-butyl)benzyl)-3-fluoro-8-azabicyclo[3.2.1]octan-3-yl)methyl)-5,6-dimethoxy-2,3-dihydro-1H-inden-1-one]	7.63	75.33
COC(=O)c1ccc(CN2C3CCC2CC(F)(CC2Cc4cc(OC)c(OC)cc4C2=O)C3)cc1 (stereo not drawn) [DC50, methyl 4-((3-((5,6-dimethoxy-1-oxo-2,3-dihydro-1H-inden-2-yl)methyl)-3-fluoro-8-azabicyclo[3.2.1]octan-8-yl)methyl)benzoate]	0.00	83.75
COc1cc2c(cc1OC)C(=O)C(CC1(F)CC3CCC(C1)N3Cc1cccc(Br)c1)C2 (stereo not drawn) [DC51, 2-((8-(3-bromobenzyl)-3-fluoro-8-azabicyclo[3.2.1]octan-3-yl)methyl)-5,6-dimethoxy-2,3-dihydro-1H-inden-1-one]	15.26	85.08
COc1cc2c(cc1OC)C(=O)C(CC1(F)CC3CCC(C1)N3Cc1ccccc1[N+](=O)[O-])C2 (stereo not drawn) [DC52, 2-((3-fluoro-8-(2-nitrobenzyl)-8-azabicyclo[3.2.1]octan-3-yl)methyl)-5,6-dimethoxy-2,3-dihydro-1H-inden-1-one]	0.73	93.80
COc1cc2c(cc1OC)C(=O)C(CC1(F)CC3CCC(C1)N3Cc1cc(F)c(F)cc1F)C2 (stereo not drawn) [DC57, 2-((3-fluoro-8-(2,4,5-trifluorobenzyl)-8-azabicyclo[3.2.1]octan-3-yl)methyl)-5,6-dimethoxy-2,3-dihydro-1H-inden-1-one]	1017	96.75
COc1cc2c(cc1OC)C(=O)C(CC1(F)CC3CCC(C1)N3Cc1ccccc1)C2 (stereo not drawn) [DC59, 2-((8-benzyl-3-fluoro-8-azabicyclo[3.2.1]octan-3-yl)methyl)-5,6-dimethoxy-2,3-dihydro-1H-inden-1-one]	69.03	86.12
COc1cc2c(cc1OC)C(=O)C(CC1(F)CC3CCC(C1)N3Cc1ccccc1F)C2 (stereo not drawn) [DC60, 2-((3-fluoro-8-(2-fluorobenzyl)-8-azabicyclo[3.2.1]octan-3-yl)methyl)-5,6-dimethoxy-2,3-dihydro-1H-inden-1-one]	64.31	95.13
COc1cc2c(cc1OC)C(=O)C(CC1(F)CC3CCC(C1)N3Cc1cccc(F)c1)C2 (stereo not drawn) [DC61, 2-((3-fluoro-8-(3-fluorobenzyl)-8-azabicyclo[3.2.1]octan-3-yl)methyl)-5,6-dimethoxy-2,3-dihydro-1H-inden-1-one]	61.04	96.75
COc1cc2c(cc1OC)C(=O)C(CC1(F)CC3CCC(C1)N3Cc1c(F)c(F)c(F)c(F)c1F)C2 (stereo not drawn) [DC68, 2-((3-fluoro-8-((perfluorophenyl)methyl)-8-azabicyclo[3.2.1]octan-3-yl)methyl)-5,6-dimethoxy-2,3-dihydro-1H-inden-1-one]	4.0	93.80
COc1cc2c(cc1OC)C(=O)C(CC1(F)CC3CCC(C1)N3Cc1cccc(C)c1)C2 (stereo not drawn) [DC69, 2-((3-fluoro-8-(3-methylbenzyl)-8-azabicyclo[3.2.1]octan-3-yl)methyl)-5,6-dimethoxy-2,3-dihydro-1H-inden-1-one]	58.86	97.49
